{"source": "paper PMC4003287", "about": "“Fast and economic immobilization methods described for non-commercial Pseudomonas lipases” (BMC Biotechnology, 2014)", "key": {"[1]": {"biological_target": "T1, LipC (Pseudomonas sp. 42A2, UniProt B3GVV9)", "T1 construct": "secreted lipase, co-expressed with foldase gene lipH of 42A2 in pBBR1MCS, host P. aeruginosa PABST7.1 (PAO1 lipA lipH deletion); crude culture supernatant, adsorbed on EP100, MP1000 or Celite 545", "T1 sequence (B3GVV9 24-309)": "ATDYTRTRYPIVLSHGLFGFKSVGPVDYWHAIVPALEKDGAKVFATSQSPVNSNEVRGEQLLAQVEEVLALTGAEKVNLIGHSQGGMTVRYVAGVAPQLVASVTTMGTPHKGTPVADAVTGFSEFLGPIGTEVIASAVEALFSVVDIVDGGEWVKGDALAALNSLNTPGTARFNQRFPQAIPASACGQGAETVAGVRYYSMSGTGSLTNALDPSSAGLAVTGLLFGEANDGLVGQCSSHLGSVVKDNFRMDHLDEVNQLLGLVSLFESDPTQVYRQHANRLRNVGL", "assay": "transesterification to FAMEs, TLC, immobilized crude enzyme", "format": "biochemical", "details": "methanol 15% w/w, water 10% w/w, room temperature, 24 h; triolein of 65% purity (with di- and monolein); FAMEs seen with EP100 and MP1000 preparations"}, "[2]": {"biological_target": "T2, LipA (Pseudomonas sp. 42A2, UniProt B3GVV8)", "T2 construct": "secreted lipase, co-expressed with foldase gene lipH of 42A2 in pBBR1MCS, host P. aeruginosa PABST7.1 (PAO1 lipA lipH deletion); crude culture supernatant, adsorbed on EP100, MP1000 or Celite 545", "T2 sequence (B3GVV8 27-311)": "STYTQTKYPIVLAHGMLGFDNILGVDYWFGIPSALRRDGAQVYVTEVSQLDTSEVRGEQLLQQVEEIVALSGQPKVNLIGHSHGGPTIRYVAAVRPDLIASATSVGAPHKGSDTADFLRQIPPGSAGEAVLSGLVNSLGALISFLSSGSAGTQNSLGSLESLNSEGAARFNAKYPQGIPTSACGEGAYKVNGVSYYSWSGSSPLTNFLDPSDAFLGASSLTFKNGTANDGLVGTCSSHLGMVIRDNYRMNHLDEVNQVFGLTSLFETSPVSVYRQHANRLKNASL", "assay": "transesterification to FAMEs, TLC, immobilized crude enzyme", "format": "biochemical", "details": "methanol 15% w/w, water 10% w/w, 30°C, 24 h; triolein of 65% purity (with di- and monolein); FAMEs seen with EP100 and Celite 545 preparations"}}}
{"smiles": "CCCCCCCC/C=C\\CCCCCCCC(=O)OCC(COC(=O)CCCCCCC/C=C\\CCCCCCCC)OC(=O)CCCCCCC/C=C\\CCCCCCCC", "note": "[triolein]", "values": [{"measurement": "transesterification to FAMEs, TLC, immobilized crude enzyme", "setting": "[1]", "result": "LipA, LipC and LipCmut produced a visible FAMEs spot when analyzed by TLC"}, {"measurement": "transesterification to FAMEs, TLC, immobilized crude enzyme", "setting": "[2]", "result": "LipA, LipC and LipCmut produced a visible FAMEs spot when analyzed by TLC"}]}
